Measurements taken from US20260027131A1, “PRODRUGS, PRODRUG COMPOSITIONS AND RELATED METHODS” (Praesidia Biotherapeutics Inc., priority 2022, published 2026).
“And” between values parts separate entries of the source, which are not always exact repeats. Equal entries are not always repeated.

Tests used:
in vitro = conditions: human, plasma
Procedure: (§1) Rat and human plasma were obtained from qualified vendors. 5 μL of 500 μM of the test article solution was added to 495 μL of pre-incubated human or rat plasma to reach a final concentration of 5 μM. The final concentration of organic solvents was not more than 0.5%. The assay was performed in duplicate. The reaction samples were incubated in a 37° C. water bath with shaking at approximately 60 rpm. 50 μL of the reaction samples were collected at 0, 30, 60, 120 and 180 minutes. The reaction was stopped by adding 300 μL of room temperature quench solution (acetonitrile containing internal standards (IS, 200 nM labetalol, 100 nM alprazolam and 2 μM ketoprofen)). The samples were vortexed for 5 minutes followed by centrifugation of the samples at 3,220 g for 30 minutes at room temperature to precipitate the protein. 100 μL of the supernatant was transferred to a new plate and diluted with 100 μL or 200 μL water according to the LC/MS signal response and peak shape. The samples were mixed well and analyzed using LC/MS/MS. The remaining percentage of parent drug versus reaction time was used to calculate the t1/2 value.

DPP4 = DPP4 (Homo sapiens, UniProt P27487); assay: in vitro; conditions: recombinant enzyme
Procedure: Aliquots were withdrawn at 0, 60 and 120 minutes from the reaction mixture and quenched with 20-volumes of cold acetonitrile. […] Glycine-proline p-nitroanilide was used as a positive control for this assay.

Rat plasma stability = format: in vitro ADME; conditions: rat; for half-life at 5 μM: plasma
Procedure: Rat and human plasma were obtained from qualified vendors. […] The assay was performed in duplicate.

[1] = Pharmacokinetic studies in rats: plasma and lung; conditions: rat, in vivo, iv
Procedure: Six to eight weeks old Sprague-Dawley rats were procured from a qualified provider. Test compounds were introduced in rats by a single intravenous administration. […] Blood samples (0.1, 0.2 or 0.5 mL) were collected with a 1 mL syringe containing anticoagulants K2EDTA. Blood samples were centrifuged to obtain plasma for analysis. […] After collection at each time point, lung samples were frozen at −75° C. Prior to analysis, a portion of lung sample was weighed and homogenized with phosphate buffer saline. […] Data analysis and pharmacokinetic parameters were generated using WinNonlin software.

[2] = Metabolic stability in rat liver microsomes; format: in vitro ADME; conditions: rat, microsomes, 1 μM
Procedure: Rat liver microsomes were obtained from qualified vendors and metabolic stability of the test compound was determined at 1 μM. The compound was incubated at 37° C. with 0.5 mg microsome/mL in the buffer in the presence of 1 mM NADPH. Aliquots of 50 μL were taken from the reaction solution at 0, 15, 30, 45 and 60 minutes. […] All samples were analyzed in duplicates.

[3] = Chemical stability at pH 4.5 and pH 7.4 in PBS; format: physicochemical; conditions: for Chemical Stability, pH 4.5: PBS pH 4.5, 37° C.; for Chemical Stability, pH 4.5 / Chemical Stability, pH 7.4: 5 μM, up to 240 min; for Chemical Stability, pH 7.4: PBS pH 7.4, 37° C.
Procedure: The assay was performed in duplicate. […] Samples were incubated at 37° C. at 600 rpm.

[4] = target: T1, Glucocorticoid receptor (GR) (Homo sapiens, UniProt P04150); assay: TR-FRET GR competitive binding assay; conditions: 0.1 μM
T1 sequence (P04150 1-777): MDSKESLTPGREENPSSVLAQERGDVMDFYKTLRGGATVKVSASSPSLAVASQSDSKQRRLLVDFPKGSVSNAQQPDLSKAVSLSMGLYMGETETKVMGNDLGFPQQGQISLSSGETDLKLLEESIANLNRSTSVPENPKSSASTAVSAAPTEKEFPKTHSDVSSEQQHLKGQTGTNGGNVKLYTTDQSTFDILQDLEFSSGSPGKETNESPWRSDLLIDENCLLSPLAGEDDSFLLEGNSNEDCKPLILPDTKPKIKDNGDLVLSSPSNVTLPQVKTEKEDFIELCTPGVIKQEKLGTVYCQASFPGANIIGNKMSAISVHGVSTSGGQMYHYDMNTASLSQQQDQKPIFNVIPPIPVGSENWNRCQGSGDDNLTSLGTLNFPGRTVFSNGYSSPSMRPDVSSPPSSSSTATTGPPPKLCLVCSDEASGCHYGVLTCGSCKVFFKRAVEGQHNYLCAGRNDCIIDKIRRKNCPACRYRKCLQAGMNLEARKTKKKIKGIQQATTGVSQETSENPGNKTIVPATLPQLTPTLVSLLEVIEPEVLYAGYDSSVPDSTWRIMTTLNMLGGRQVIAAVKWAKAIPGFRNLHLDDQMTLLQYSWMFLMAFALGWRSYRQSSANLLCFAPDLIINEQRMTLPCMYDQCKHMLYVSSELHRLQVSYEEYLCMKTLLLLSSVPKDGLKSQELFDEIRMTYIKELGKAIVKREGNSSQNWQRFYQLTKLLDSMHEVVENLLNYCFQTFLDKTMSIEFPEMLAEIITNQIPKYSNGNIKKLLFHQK
Procedure: Glucocorticoid receptor (GR) binding of prodrugs was determined using TR-FRET GR competitive binding assay. Three-point (0.1, 1 and 10 μM) binding was evaluated for each prodrug.

[5] = read-out: Rat Plasma Stability t½

DPP4, sequence (P27487 whole entry, species assumed): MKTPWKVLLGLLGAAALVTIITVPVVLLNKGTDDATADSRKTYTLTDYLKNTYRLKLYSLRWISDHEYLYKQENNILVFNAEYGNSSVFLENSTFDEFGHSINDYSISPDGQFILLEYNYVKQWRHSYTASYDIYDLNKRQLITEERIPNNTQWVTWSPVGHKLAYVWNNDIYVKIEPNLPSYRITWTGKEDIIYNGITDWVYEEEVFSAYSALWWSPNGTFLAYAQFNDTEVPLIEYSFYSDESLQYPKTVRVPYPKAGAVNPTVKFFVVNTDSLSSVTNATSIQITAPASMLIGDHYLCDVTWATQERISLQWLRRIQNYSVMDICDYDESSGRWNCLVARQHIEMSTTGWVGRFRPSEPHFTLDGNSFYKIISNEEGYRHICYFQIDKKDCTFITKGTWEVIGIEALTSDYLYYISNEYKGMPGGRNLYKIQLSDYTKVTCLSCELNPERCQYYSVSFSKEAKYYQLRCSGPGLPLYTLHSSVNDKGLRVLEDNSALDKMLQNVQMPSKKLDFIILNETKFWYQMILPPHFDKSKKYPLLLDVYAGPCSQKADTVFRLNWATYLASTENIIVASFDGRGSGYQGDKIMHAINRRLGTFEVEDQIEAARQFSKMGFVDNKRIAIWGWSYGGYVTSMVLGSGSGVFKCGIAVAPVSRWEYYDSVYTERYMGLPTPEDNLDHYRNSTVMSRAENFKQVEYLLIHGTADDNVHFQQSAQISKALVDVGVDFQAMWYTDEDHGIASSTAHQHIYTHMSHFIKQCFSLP
Procedure for Caco-2 cell monolayers: CaCO-2 cells were cultured, and a monolayer was developed in-house in 96 well-plates over 18 days using standard protocol. The monolayer was tested for the integrity of the cell monolayer before using.
Test compounds were added to the transwell insert (apical compartment) to determine the rate of drug transport in the apical to basolateral direction. To determine the rate of drug transport in the basolateral to apical direction, the test compound was added to the receiver plate wells (basolateral compartment). Appropriate amount of HBSS (10 mM HEPES, pH 7.4) was added in both compartments for a final volume of 200 μL. The plates were incubated at 37° C. with shaking at 150 rpm on a rotary shaker for 2 hours. At the end of the transport period, 50 μL from the apical and basolateral wells were collected and 4 volume of cold acetonitrile containing internal standards (IS: 100 nM alprazolam, 200 nM labetalol, and 2 μM ketoprofen) was added to each sample to terminate the reaction. The samples were vortexed and centrifuged at 3,800 g for 20 minutes. An aliquot of 150 μL of the supernatant was used for LC/MS/MS analysis. All samples were analyzed in duplicates. Samples were analyzed through LC/MS/MS for estimating the permeability and efflux of the compounds across Caco-2 cell monolayers.
Procedure for Human plasma stability: as §1

| Structure (SMILES) | half-life at 5 μM (in vitro) | half-life at 5 μM (Rat plasma stability) | also measured |
| --- | --- | --- | --- |
| C[C@@H]1C[C@H]2[C@@H]3CCC4=CC(=O)C=C[C@]4(C)[C@@]3(F)[C@@H](O)C[C@]2(C)[C@@]1(O)C(=O)COC(=O)[C@@H]1CCCN1 [Comparative Compound 3, reference compound] | 0.417 h | – | – |
| CNC(C(=O)N1CCCC1C(=O)NCC(C)(C)C(C)C(=O)OCC(=O)[C@@]1(O)[C@H](C)C[C@H]2[C@@H]3CCC4=CC(=O)C=C[C@]4(C)[C@@]3(F)[C@@H](O)C[C@@]21C)C(C)C (some centres unmarked) [Compound 32] | – | – | half-life at 10 μM (DPP4): 3.57 h |
| COc1cc(NC(=O)[C@@H](N)C(C)C)c(C(=O)OCC(=O)[C@@]2(O)[C@H](C)CC3[C@@H]4CCC5=CC(=O)C=C[C@]5(C)[C@@]4(F)[C@@H](O)C[C@@]32C)c(OC(C)C)c1 (some centres unmarked) [Compound 14] | > 4 h | > 4 h | – |
| CC(NNC(=O)C1CCCN1)C(C)C(=O)OCC(=O)[C@@]1(O)[C@H](C)C[C@H]2[C@@H]3CCC4=CC(=O)C=C[C@]4(C)[C@@]3(F)[C@@H](O)C[C@@]21C (some centres unmarked) [Compound 28] | > 4 h | 2.45 h | – |
| CC(C)[C@H](N)C(=O)Nc1ccc([C@H](C)NC(=O)OCC(=O)[C@@]2(O)[C@H](C)C[C@H]3[C@@H]4CCC5=CC(=O)C=C[C@]5(C)[C@@]4(F)[C@@H](O)C[C@@]32C)cc1 [Compound 24] | > 4 h | > 4 h | – |
| CC(C)C(N)C(=O)OCC(=O)[C@@]1(O)[C@H](C)C[C@H]2[C@@H]3CCC4=CC(=O)C=C[C@]4(C)[C@@]3(F)[C@@H](O)C[C@@]21C (some centres unmarked) [Comparative Compound 1, reference compound] | 2.88 h | – | – |
| CC(C)C(N)C(=O)N1CCCC1C(=O)NCC(C)(C)C(C)C(=O)OCC(=O)[C@@]1(O)[C@H](C)C[C@H]2[C@@H]3CCC4=CC(=O)C=C[C@]4(C)[C@@]3(F)[C@@H](O)C[C@@]21C (some centres unmarked) [Compound 31] | > 4 h | > 4 h | Lung/Plasma % of Dex [1]: 74% and 100% and 78%; Rat plasma stability (Rat plasma stability; 5 μM): >240; RLM [2]: 63; half-life at 10 μM (DPP4): 2.78 h; Permeability A-B (Caco-2 cell monolayers): A-B = 0.065 × 10^−6, cm/s; Permeability B-A (Caco-2 cell monolayers): B-A = 11 × 10^−6, cm/s; Chemical stability [3]: Yes |
| CC(C)[C@H](N)C(=O)Nc1cscc1CC(=O)OCC(=O)[C@@]1(O)[C@H](C)C[C@H]2[C@@H]3CCC4=CC(=O)C=C[C@]4(C)[C@@]3(F)[C@@H](O)C[C@@]21C.Cl [Compound 38] | – | – | half-life at 5 μM (Human plasma stability): > 4 h; half-life at 5 μM (Rat plasma stability; [5]): > 4 h; Chemical Stability, pH 4.5 [3]: Yes; Chemical Stability, pH 7.4 [3]: Yes |
| CC(C)[C@H](N)C(=O)NCCc1cscc1C(=O)OCC(=O)[C@@]1(O)[C@H](C)C[C@H]2[C@@H]3CCC4=CC(=O)C=C[C@]4(C)[C@@]3(F)[C@@H](O)C[C@@]21C [Compound 37] | > 4 h | > 4 h | – |
| C[C@@H]1CC2[C@@H]3CCC4=CC(=O)C=C[C@]4(C)[C@@]3(F)[C@@H](O)C[C@]2(C)[C@@]1(O)C(=O)COC(=O)c1cccc(F)c1NC(=O)[C@@H](N)Cc1ccccc1.Cl (some centres unmarked) [Compound 7] | – | – | Chemical Stability, pH 4.5 [3]: Yes; Chemical Stability, pH 7.4 [3]: Yes |
| CC(CC(=O)OCC(=O)[C@@]1(O)[C@H](C)C[C@H]2[C@@H]3CCC4=CC(=O)C=C[C@]4(C)[C@@]3(F)[C@@H](O)C[C@@]21C)c1ccccc1NC(=O)[C@@H](N)C(C)C.Cl (some centres unmarked) [Compound 18] | – | – | GR Binding Data [4]: 46% |
| C[C@@H]1C[C@H]2[C@@H]3CCC4=CC(=O)C=C[C@]4(C)[C@@]3(F)[C@@H](O)C[C@]2(C)[C@@]1(O)C(=O)CO [Dexamethasone, reference compound] | – | – | GR Binding Data [4]: 85% |
| COc1cc(N(C)C)cc(NC(=O)[C@H](Cc2ccccc2)N(C)C)c1C(=O)OCC(=O)[C@@]1(O)[C@H](C)CC2[C@@H]3CCC4=CC(=O)C=C[C@]4(C)[C@@]3(F)[C@@H](O)C[C@@]21C (some centres unmarked) [Compound 16] | > 4 h | > 4 h | – |
| CC(C)[C@H](N)C(=O)Nc1ccc(C(=O)OCC(=O)[C@@]2(O)[C@H](C)C[C@H]3[C@@H]4CCC5=CC(=O)C=C[C@]5(C)[C@@]4(F)[C@@H](O)C[C@@]32C)cc1 [Compound 1] | > 4 h | – | – |
| COc1cc(Br)c(C(=O)OCC(=O)[C@@]2(O)[C@H](C)CC3[C@@H]4CCC5=CC(=O)C=C[C@]5(C)[C@@]4(F)[C@@H](O)C[C@@]32C)c(NC(=O)[C@@H](N)C(C)C)c1 (some centres unmarked) [Compound 13] | > 4 h | > 4 h | – |
| C[C@@H]1C[C@H]2[C@@H]3CCC4=CC(=O)C=C[C@]4(C)[C@@]3(F)[C@@H](O)C[C@]2(C)[C@@]1(O)C(=O)COC(=O)NCc1ccccc1NC(=O)[C@@H](N)Cc1ccccc1.Cl [Compound 23] | – | – | half-life at 5 μM (Human plasma stability): > 4 h; half-life at 5 μM (Rat plasma stability; [5]): > 4 h |
| COc1cc(N(C)C)cc(NC(=O)[C@@H](N)Cc2ccccc2)c1C(=O)OCC(=O)[C@@]1(O)[C@H](C)CC2[C@@H]3CCC4=CC(=O)C=C[C@]4(C)[C@@]3(F)[C@@H](O)C[C@@]21C (some centres unmarked) [Compound 15] | > 4 h | > 4 h | – |
| CC(NC(C)[C@@H](N)C(C)C)c1cscc1C(=O)OCC(=O)[C@@]1(O)[C@H](C)C[C@H]2[C@@H]3CCC4=CC(=O)C=C[C@]4(C)[C@@]3(F)[C@@H](O)C[C@@]21C (some centres unmarked) [Compound 35] | > 4 h | > 4 h | – |
| CC(C)[C@H](N)C(=O)Nc1ccc(C(=O)OCC(=O)[C@@]2(O)[C@H](C)C[C@H]3[C@@H]4CCC5=CC(=O)C=C[C@]5(C)[C@@]4(F)[C@@H](O)C[C@@]32C)cc1F [Compound 6] | > 4 h | > 4 h | – |
| CC(C)C(N)C(=O)N1CCCC1C(=O)NCC1(CC(=O)OCC(=O)[C@@]2(O)[C@H](C)C[C@H]3[C@@H]4CCC5=CC(=O)C=C[C@]5(C)[C@@]4(F)[C@@H](O)C[C@@]32C)CC1 (some centres unmarked) [Compound 34] | > 4 h | > 4 h | – |
| COc1cc(NC(=O)[C@@H](N)Cc2ccccc2)c(C(=O)OCC(=O)[C@@]2(O)[C@H](C)CC3[C@@H]4CCC5=CC(=O)C=C[C@]5(C)[C@@]4(F)[C@@H](O)C[C@@]32C)c(OC)c1 (some centres unmarked) [Compound 12] | > 4 h | > 4 h | – |
| COc1cc(NC(=O)[C@@H](N)C(C)C)c(C(=O)OCC(=O)[C@@]2(O)[C@H](C)CC3[C@@H]4CCC5=CC(=O)C=C[C@]5(C)[C@@]4(F)[C@@H](O)C[C@@]32C)c(OC)c1 (some centres unmarked) [Compound 11] | > 4 h | > 4 h | – |
| CC(C)[C@H](NC(=O)[C@@H]1CCCN1C(=O)CN)C(=O)Nc1ccc(C(=O)OCC(=O)[C@@]2(O)[C@H](C)C[C@H]3[C@@H]4CCC5=CC(=O)C=C[C@]5(C)[C@@]4(F)[C@@H](O)C[C@@]32C)cc1 [Compound 3] | – | – | half-life at 10 μM (DPP4): 2.53 h |
| CC(NC(=O)[C@@H](N)Cc1ccccc1)c1cscc1C(=O)OCC(=O)[C@@]1(O)[C@H](C)C[C@H]2[C@@H]3CCC4=CC(=O)C=C[C@]4(C)[C@@]3(F)[C@@H](O)C[C@@]21C (some centres unmarked) [Compound 36] | > 4 h | > 4 h | – |
